Results on three compounds are retold here after patent publication US9573882B2, “Use of 4-[ethyl(dimethyl)ammonio]butanoate in the treatment of cardiovascular disease” (JSC GRINDEKS, priority 2009, dated 2017).

Data set [1] has as its system isolated rat heart infarction model. Kind of data set: Isolated rat heart infarction study after daily p.o. treatment. The format is in vivo, Wistar rats. The note with it: for Infarct size, % of control: isolated rat heart, 60 min occlusion, 150 min reperfusion, mean ± s.e.m. of 9-10 animals; for decrease of infarct size: versus control. Here is the method: Fifty male, 10 weeks old Wistar rats weighing 200-250 g were housed under standard conditions (21-23° C., 12 h light-dark cycle) with unlimited access to food (R3 diet, Lactamin AB, Sweden) and water.
Rats were adapted to local conditions for two weeks before the start of treatment. Meldonium dihydrate at a dose of 5 mg/kg or 100 mg/kg, gamma-butyrobetaine at a dose of 5 mg/kg and EG at doses of 20 mg/kg were administered p.o. daily for 8 weeks. Control rats received water.
Isolated Rat Heart Infarction Study The isolated rat heart experiment was performed essentially as described earlier (Liepinsh et al., J. Cardiovasc. Pharmacol. 2006; 48(6):314-9). Twenty-four hours after the last drug administration hearts were excised and retrogradely perfused via the aorta at a constant pressure with oxygenated Krebs-Henseleit buffer at 37° C. The heart rate, left ventricle end-diastolic pressure and left ventricle developed pressure were continuously recorded. Coronary flow was measured using an ultrasound flow detector (HSE) and the PowerLab 8/30 system from ADInstruments. The hearts were perfused for 20 min to stabilize the hemodynamic functions and then occlusion was performed for 60 min by constricting threads through a plastic tube. Successful occlusion was confirmed by a coronary flow decrease of about 40 percent. Reperfusion was achieved by releasing the threads. At the end of the 150-min reperfusion period, the risk zone was delineated with 0.1% methylene blue. The hearts were then sectioned transversely from the apex to the base in five slices 2 mm in thickness and incubated in 1% triphenyltetrazolium chloride in phosphate buffer (pH 7.4, 37° C.) for 10 min to stain viable tissue red and necrotic tissue white. Computerized planemetric analysis of Sony A900 photographs was performed using Image-Pro Plus 6.3 software to determine the area at risk and area of necrosis expressed as a % of the left ventricle. The obtained values were then used to calculate the infarct size (IS) as a % of risk area according to the formula: Infarct Size=Area of Necrosis/Area at Risk×100%.
The anti-infarction effect of examined substances was investigated in an isolated rat heart infarction model. During occlusion of left coronary artery, the coronary flow in all experimental groups was decreased for 40% (from 11 ml/min 30 to 7 ml/min). Moreover, the drop of developed left ventricular pressure for 50% was observed. […] In reperfusion stage, coronary flow, developed left ventricular pressure, ±dp/dt values were recovered till about 80% of control level. There were no significant differences between control and treatment groups.
Effects of Meldonium dihydrate (5 mg/kg un 100 mg/kg), gamma-butyrobetaine (5 mg/kg) and 4-[ethyl(dimethyl)ammonio]butanoate (EG) (5 mg/kg) after […] of treatment on infarct size in the isolated rat heart infarction experiment are presented in Table 1.

For data set [2] the following is noted: s.c.; cited from earlier work.

A value given as a limit tells only on which side of the number the result lay.

For `CC[N+](C)(C)CCCC(=O)[O-]` [EG, 4-[ethyl(dimethyl)ammonio]butanoate], the “Infarct size, % of control” value in data set [1] (5 mg/kg p.o. daily) is listed as 59 ± 6 % of control. Besides, the “decrease of infarct size” value in data set [1] (dose of 5 mg/kg) is given as 41%.

`C[N+](C)(C)CCCC(=O)[O-]` [Gamma-butyrobetaine]: the LD50 in data set [2] is > 7000 mg/kg. Also, the “Infarct size, % of control” value in data set [1] (5 mg/kg p.o. daily) is given as 90 ± 5 % of control. Besides, in data set [1] (dose of 5 mg/kg), the “therapeutical effect on infarct size” value is “no therapeutical effect”.

With `C[N+](C)(C)NCCC(=O)[O-]` [Meldonium dihydrate, 3-(2,2,2-Trimethylhydrazinium)propionate dihydrate], the “Infarct size, % of control” value was 95 ± 9 % of control in data set [1] (5 mg/kg p.o. daily) and 76 ± 10 % of control in data set [1] (100 mg/kg p.o. daily). The “decrease of infarct size” value in data set [1] (100 mg/kg) is on record as 24%; in data set [1] (dose of 5 mg/kg) it was 5%.

One may read the LD50 as the dose at which mortality reaches 50%.
